Assay results as given in the NIST ThermoML archive (doi:10.1016/j.fluid.2017.12.010).

Assay: xn = mol fraction of the nth substance listed
Details: Liquid, Vibrating tube method

CCCCCCCCCCCC [dodecane] + CCCCCCCCCC
Details | mass density [kg/m3]
323.11 K, 10000 kPa, x2 = 0.4436 | 728
323.11 K, 20000 kPa, x2 = 0.4436 | 735
323.11 K, 30000 kPa, x2 = 0.4436 | 742
323.12 K, 40000 kPa, x2 = 0.4436 | 749
323.12 K, 60000 kPa, x2 = 0.4436 | 761
323.12 K, 80000 kPa, x2 = 0.4436 | 771
323.13 K, 100000 kPa, x2 = 0.4436 | 781
323.21 K, 100 kPa, x2 = 0.6433 | 715
323.21 K, 1000 kPa, x2 = 0.6433 | 716
323.21 K, 5000 kPa, x2 = 0.6433 | 720
323.21 K, 10000 kPa, x2 = 0.6433 | 724
323.21 K, 20000 kPa, x2 = 0.6433 | 732
323.22 K, 30000 kPa, x2 = 0.6433 | 739
323.22 K, 40000 kPa, x2 = 0.6433 | 746
323.22 K, 60000 kPa, x2 = 0.6433 | 757
323.22 K, 80000 kPa, x2 = 0.6433 | 768
323.22 K, 100000 kPa, x2 = 0.6433 | 777
323.23 K, 5000 kPa, x2 = 0.7841 | 717
323.24 K, 100 kPa, x2 = 0.7841 | 712
323.24 K, 1000 kPa, x2 = 0.7841 | 713
323.24 K, 10000 kPa, x2 = 0.7841 | 721
323.24 K, 20000 kPa, x2 = 0.7841 | 729
323.24 K, 30000 kPa, x2 = 0.7841 | 736
323.24 K, 40000 kPa, x2 = 0.7841 | 743
323.24 K, 60000 kPa, x2 = 0.7841 | 755
323.24 K, 80000 kPa, x2 = 0.7841 | 765
323.24 K, 99990 kPa, x2 = 0.7841 | 775
332.74 K, 100 kPa, x2 = 0 | 720
332.74 K, 1000 kPa, x2 = 0 | 721
332.74 K, 5000 kPa, x2 = 0 | 725
332.74 K, 10000 kPa, x2 = 0 | 729
332.74 K, 20000 kPa, x2 = 0 | 737
332.74 K, 30000 kPa, x2 = 0 | 744
332.74 K, 40000 kPa, x2 = 0 | 750
332.74 K, 50000 kPa, x2 = 0 | 757
332.74 K, 60000 kPa, x2 = 0 | 762
332.74 K, 70000 kPa, x2 = 0 | 768
332.74 K, 80000 kPa, x2 = 0 | 773
332.74 K, 90000 kPa, x2 = 0 | 778
332.75 K, 100000 kPa, x2 = 0 | 782
332.97 K, 100 kPa, x2 = 0.4436 | 712
332.98 K, 1000 kPa, x2 = 0.4436 | 713
332.99 K, 5000 kPa, x2 = 0.4436 | 717
332.99 K, 10000 kPa, x2 = 0.4436 | 721
332.99 K, 20000 kPa, x2 = 0.4436 | 729
333 K, 100 kPa, x2 = 0.2297 | 716
333 K, 1000 kPa, x2 = 0.2297 | 717
333 K, 5000 kPa, x2 = 0.2297 | 720
333 K, 30000 kPa, x2 = 0.4436 | 736
333 K, 40000 kPa, x2 = 0.4436 | 743
333.01 K, 10000 kPa, x2 = 0.2297 | 725
333.01 K, 20000 kPa, x2 = 0.2297 | 733
333.01 K, 60000 kPa, x2 = 0.4436 | 755
333.01 K, 80000 kPa, x2 = 0.4436 | 766
333.01 K, 100000 kPa, x2 = 0.4436 | 776
333.02 K, 30000 kPa, x2 = 0.2297 | 740
333.02 K, 40000 kPa, x2 = 0.2297 | 747
333.02 K, 60000 kPa, x2 = 0.2297 | 758
333.03 K, 80000 kPa, x2 = 0.2297 | 769
333.03 K, 100000 kPa, x2 = 0.2297 | 779
333.06 K, 100 kPa, x2 = 0.7841 | 705
333.07 K, 1000 kPa, x2 = 0.7841 | 706
333.07 K, 40000 kPa, x2 = 0.7841 | 737
333.08 K, 5000 kPa, x2 = 0.7841 | 710
333.08 K, 10000 kPa, x2 = 0.7841 | 714
333.08 K, 20000 kPa, x2 = 0.7841 | 723
333.08 K, 30000 kPa, x2 = 0.7841 | 730
333.08 K, 60000 kPa, x2 = 0.7841 | 749
333.08 K, 80000 kPa, x2 = 0.7841 | 760
333.08 K, 100000 kPa, x2 = 0.7841 | 770
333.09 K, 100 kPa, x2 = 0.6433 | 708
333.09 K, 1000 kPa, x2 = 0.6433 | 709
333.09 K, 5000 kPa, x2 = 0.6433 | 713
333.09 K, 10000 kPa, x2 = 0.6433 | 717
333.09 K, 30000 kPa, x2 = 0.6433 | 733
333.1 K, 20000 kPa, x2 = 0.6433 | 725
333.1 K, 40000 kPa, x2 = 0.6433 | 740
333.1 K, 60000 kPa, x2 = 0.6433 | 752
333.1 K, 80000 kPa, x2 = 0.6433 | 763
333.1 K, 100000 kPa, x2 = 0.6433 | 772
342.67 K, 100 kPa, x2 = 0 | 713
342.67 K, 1000 kPa, x2 = 0 | 714
342.67 K, 5000 kPa, x2 = 0 | 718
342.67 K, 10000 kPa, x2 = 0 | 722
342.67 K, 20000 kPa, x2 = 0 | 731
342.67 K, 30000 kPa, x2 = 0 | 738
342.67 K, 40000 kPa, x2 = 0 | 745
342.67 K, 50000 kPa, x2 = 0 | 751
342.67 K, 60000 kPa, x2 = 0 | 757
342.67 K, 69990 kPa, x2 = 0 | 763
342.67 K, 80000 kPa, x2 = 0 | 768
342.67 K, 90000 kPa, x2 = 0 | 773
342.67 K, 100000 kPa, x2 = 0 | 778
342.92 K, 100 kPa, x2 = 0.2297 | 709
342.92 K, 100 kPa, x2 = 0.4436 | 705
342.92 K, 1000 kPa, x2 = 0.2297 | 710
342.92 K, 1000 kPa, x2 = 0.4436 | 706
342.92 K, 5000 kPa, x2 = 0.2297 | 714
342.92 K, 5000 kPa, x2 = 0.4436 | 710
342.92 K, 10000 kPa, x2 = 0.2297 | 718
342.92 K, 10000 kPa, x2 = 0.4436 | 714
342.92 K, 20000 kPa, x2 = 0.2297 | 727
342.93 K, 100 kPa, x2 = 0.6433 | 701
342.93 K, 1000 kPa, x2 = 0.6433 | 702
342.93 K, 20000 kPa, x2 = 0.4436 | 723
342.93 K, 30000 kPa, x2 = 0.2297 | 734
342.93 K, 30000 kPa, x2 = 0.4436 | 731
342.93 K, 40000 kPa, x2 = 0.2297 | 741
342.93 K, 40000 kPa, x2 = 0.4436 | 738
342.93 K, 60000 kPa, x2 = 0.2297 | 753
342.93 K, 60000 kPa, x2 = 0.4436 | 750
342.93 K, 80000 kPa, x2 = 0.4436 | 761
342.93 K, 100000 kPa, x2 = 0.4436 | 771
342.94 K, 5000 kPa, x2 = 0.6433 | 706
342.94 K, 10000 kPa, x2 = 0.6433 | 710
342.94 K, 20000 kPa, x2 = 0.6433 | 719
342.94 K, 30000 kPa, x2 = 0.6433 | 727
342.94 K, 40000 kPa, x2 = 0.6433 | 734
342.94 K, 60000 kPa, x2 = 0.6433 | 747
